Data set [1] in a line: Free base crystalline form B nitrogen purging (XRPD). Type of data set: physicochemical. As to conditions: nitrogen purging at 30° C. for 20 minutes.
Data set [2] is described as follows: Free base crystalline form B standing at room temperature (XRPD). Type of data set: physicochemical. As to conditions: closed space, 5 days. From the text: The XRPD patterns of free base crystalline form B of compound A2 before and after standing at room temperature are shown in FIG. 9.
Data set [3] in a line: Solid state stability of free base crystalline form A (HPLC). As to conditions: 60° C./1 day, closed space. Format: physicochemical. On the procedure: Solid State Stability of Free Base Crystalline Form A
The XRPD patterns of an initial sample of the free base crystalline form A described above and the free base crystalline form A after 1 day of standing in a closed space at 60° C. are shown in FIG. 5, and the HPLC results are shown in Table 5.

Data set [4] is described as follows: microsome metabolite identification / stability, beagle liver microsomes. Format: in vitro ADME. As to conditions: 37° C. As for the experimental part:
(§1) The operation steps for microsome metabolite identification were as follows:
(§2) For the sample with T=60 min, 4 μL of the test sample working solution (1.0 mM), 316 μL of the liver microsome working solution (1.27 mg/mL) and 80 μL of the reduced coenzyme working solution were added sequentially to start the reaction; for the sample with T=0 min, 316 μL of the liver microsome working solution (1.27 mg/mL) was added, and 80 μL of the reduced coenzyme working solution was added to start the reaction, with no test sample incubation; after incubation at 37° C. for 60 min, 1200 μL of stop buffer was added to stop the enzymatic reaction; and for the sample with T=0 min, 4 μL of the test sample working solution (1.0 mM) was added. The sample plate was placed on a vortexer and vortexed at 600 rpm for 5 min. The mixture was centrifuged at 4000 rpm for 10 min, and the supernatant was removed, mixed and purged with nitrogen to dryness at room temperature. The resulting solution was re-dissolved with 300 μL of 10% acetonitrile (0.1% FA), the […] centrifuged at 4000 rpm for 15 min, and the supernatant was transferred to a detection plate for mass spectrometry. Mass spectrometry was performed using an LC/Q-Exactive plus. 7-ethoxycoumarin (10 μM) was selected as a positive control compound, using the procedure same as that of the compounds.

Data set [5] is described as follows: microsome metabolite identification / stability, human liver microsomes. Type of data set: in vitro ADME. As to conditions: 37° C. As for the experimental part: as §1, §2
In general terms: Liver microsomes are a subcellular fraction often used to study metabolism.

Data set [6] is described as follows: microsome metabolite identification / stability, rat liver microsomes. As to conditions: 37° C. Type of data set: in vitro ADME. On the procedure: as §1, §2
Data set [7] can be described thus: microsome metabolite identification / stability, cynomolgus monkey liver microsomes. Format: in vitro ADME. The note with it: 37° C. On the procedure: as §1, §2
Data set [8] is described as follows: microsome metabolite identification / stability, mouse liver microsomes. Format: in vitro ADME. The note with it: 37° C. On the procedure:
as §1, §2

The results in this text go back to US12643876B2, “Deuterated hpki kinase inhibitor, and preparation method therefor and use thereof” (ZHUHAI YUFAN BIOTECHNOLOGIES CO., LTD, priority 2020, dated 2026).

For `[2H]C([2H])([2H])N1CCC(n2cc(-c3cnc(N)c(OCc4cccc(C#CC(C)(C)O)c4)c3)cn2)CC1` [4-(3-(((2-amino-S-(1-(1-trideuteromethylpiperidin-4-yl)-1H-pyrazol-4-yl)pyridin-3-yl)oxy)methyl)phenyl)-2-methylbut-3-yn-2-ol], the entries for the “crystalline form stability (XRPD)” value in data set [1] and in data set [2] were “conversion in crystalline forms” and “tendency of converting into the free base crystalline form A”, respectively. In addition, in data set [3] (initial sample 0.10), the “HPLC Area (%) of peak 4 (RRT 1.06)” value came to 0.09%. The “HPLC Area (%) of peak 3 (RRT 1.05)” value in data set [3] (initial sample 0.22) is 0.17%. In addition, the “HPLC Area (%) of peak 1 (RRT 0.95)” value in data set [3] (initial sample 0.42) came to 0.41%. Also, in data set [3] (initial sample 99.26), the “HPLC Area (%) of peak 2 (RRT 1.00, main peak)” value was found to be 99.33%.

`CN1CCC(n2cc(-c3cnc(N)c(OCc4cccc(C#CC(C)(C)O)c4)c3)cn2)CC1` [Compound A1, reference compound]: the “remaining percentage of the parent nucleus after 60 min” value (“remaining percentage” below) in data set [4] turned out to be 0.17%; in data set [5], 43.84%; in data set [6], 2.44%; in data set [7], 0.36%; in data set [8], 1.13%.

Regarding `[2H]C([2H])([2H])N1CCC(n2cc(-c3cnc(N)c(OCc4cccc(C#CC(C)(C)O)c4)c3)cn2)CC1` [Compound A2, 4-(3-(((2-amino-S-(1-(1-trideuteromethylpiperidin-4-yl)-1H-pyrazol-4-yl)pyridin-3-yl)oxy)methyl)phenyl)-2-methylbut-3-yn-2-ol], the “remaining percentage” value in data set [4] came to 7.0%; in data set [5], 83.9%; in data set [6] it was 52.1%; in data set [7] it was 29.6%; in data set [8], 55.0%.

For the compound `CN1CCC(c2ncc(-c3cnc(N)c(OCc4cccc(C#CC(C)(C)O)c4)c3)s2)CC1` [Compound B1, reference compound], the “remaining percentage” value in data set [4] is recorded as 0.12%; in data set [5], 51.82%; in data set [6], 11.21%; in data set [7], 9.11%; in data set [8], 1.24%.

`[2H]C([2H])([2H])N1CCC(c2ncc(-c3cnc(N)c(OCc4cccc(C#CC(C)(C)O)c4)c3)s2)CC1` [Compound B2]: the “remaining percentage” value came to 8.9% in data set [4]; 70.4% in data set [5]; 43.9% in data set [6]; 23.4% in data set [7]; 42.8% in data set [8].
